Laboratory results taken from the NIST ThermoML archive (doi:10.1021/acs.jced.5b00197).

Experiment: refractive index (other wavelength) (dimensionless); xn = mol fraction of the nth substance listed
Conditions: 94.64 kPa, Liquid, Standard Abbe refractometry

CC(=O)O [acetic acid] + Cc1ccccc1
refractive index
Conditions | Wavelength=404.7 nm | Wavelength=435.8 nm | Wavelength=486.1 nm | Wavelength=546.1 nm | Wavelength=587.6 nm | Wavelength=632.8 nm | Wavelength=644 nm | Wavelength=706.5 nm
293.15 K, x1 = 0.146 | 1.51185 | 1.50406 | 1.49519 | 1.48808 | 1.4846 | 1.48156 | 1.48087 | 1.47771
293.15 K, x1 = 0.277 | 1.49627 | 1.48902 | 1.48081 | 1.47416 | 1.47093 | 1.4681 | 1.46744 | 1.46997
293.15 K, x1 = 0.397 | 1.48254 | 1.47576 | 1.4681 | 1.46191 | 1.45889 | 1.45622 | 1.4556 | 1.4528
293.15 K, x1 = 0.506 | 1.46794 | 1.46165 | 1.45457 | 1.44883 | 1.44603 | 1.44355 | 1.44297 | 1.44033
293.15 K, x1 = 0.605 | 1.45403 | 1.44826 | 1.44171 | 1.43642 | 1.43382 | 1.43151 | 1.43097 | 1.42851
293.15 K, x1 = 0.697 | 1.43966 | 1.43437 | 1.4285 | 1.42367 | 1.42129 | 1.41917 | 1.41867 | 1.41635
293.15 K, x1 = 0.782 | 1.42556 | 1.42081 | 1.41549 | 1.41115 | 1.40899 | 1.40703 | 1.40657 | 1.40444
293.15 K, x1 = 0.859 | 1.41172 | 1.40749 | 1.40275 | 1.39886 | 1.39688 | 1.3951 | 1.39469 | 1.39271
293.15 K, x1 = 0.897 | 1.40081 | 1.397 | 1.39273 | 1.38919 | 1.38738 | 1.38572 | 1.38534 | 1.38353
293.15 K, x1 = 0.932 | 1.39511 | 1.39153 | 1.3875 | 1.38415 | 1.38242 | 1.38084 | 1.38047 | 1.37874
293.15 K, x1 = 0.967 | 1.38917 | 1.38582 | 1.38206 | 1.37892 | 1.37727 | 1.37577 | 1.37542 | 1.37375
293.15 K, x1 = 1 | 1.38345 | 1.38034 | 1.37681 | 1.37386 | 1.3723 | 1.37087 | 1.37055 | 1.36896
298.15 K, x1 = 0.146 | 1.50896 | 1.50121 | 1.49239 | 1.48532 | 1.48187 | 1.47884 | 1.47816 | 1.47502
298.15 K, x1 = 0.277 | 1.4934 | 1.48619 | 1.47801 | 1.47142 | 1.46821 | 1.46538 | 1.46473 | 1.46178
298.15 K, x1 = 0.397 | 1.47979 | 1.47305 | 1.46545 | 1.45928 | 1.45629 | 1.45365 | 1.45303 | 1.45023
298.15 K, x1 = 0.506 | 1.46521 | 1.45896 | 1.45191 | 1.44622 | 1.44342 | 1.44095 | 1.44038 | 1.43776
298.15 K, x1 = 0.605 | 1.45129 | 1.44555 | 1.43909 | 1.43383 | 1.43125 | 1.42896 | 1.42842 | 1.42598
298.15 K, x1 = 0.697 | 1.43707 | 1.43182 | 1.42596 | 1.42117 | 1.41881 | 1.41669 | 1.41619 | 1.4139
298.15 K, x1 = 0.782 | 1.42305 | 1.41834 | 1.41304 | 1.40874 | 1.40658 | 1.40463 | 1.40417 | 1.40417
298.15 K, x1 = 0.859 | 1.41005 | 1.40512 | 1.40043 | 1.39655 | 1.3946 | 1.39284 | 1.39242 | 1.39049
298.15 K, x1 = 0.897 | 1.39862 | 1.39482 | 1.3906 | 1.38706 | 1.38527 | 1.38364 | 1.38326 | 1.38144
298.15 K, x1 = 0.932 | 1.39296 | 1.38941 | 1.3854 | 1.38208 | 1.38035 | 1.37878 | 1.37842 | 1.37669
298.15 K, x1 = 0.967 | 1.3871 | 1.38379 | 1.38002 | 1.37691 | 1.37526 | 1.37375 | 1.37341 | 1.37177
298.15 K, x1 = 1 | 1.38126 | 1.37816 | 1.37466 | 1.37174 | 1.37018 | 1.36876 | 1.36844 | 1.36686
303.15 K, x1 = 0.146 | 1.50611 | 1.49841 | 1.48963 | 1.48261 | 1.47918 | 1.47618 | 1.47549 | 1.47237
303.15 K, x1 = 0.277 | 1.4905 | 1.48332 | 1.47522 | 1.46865 | 1.46547 | 1.46268 | 1.46203 | 1.45908
303.15 K, x1 = 0.397 | 1.47698 | 1.47026 | 1.46273 | 1.45661 | 1.45363 | 1.451 | 1.45039 | 1.44761
303.15 K, x1 = 0.506 | 1.46241 | 1.45621 | 1.44918 | 1.44352 | 1.44075 | 1.4383 | 1.43773 | 1.43513
303.15 K, x1 = 0.605 | 1.44837 | 1.44266 | 1.43626 | 1.43107 | 1.42851 | 1.42623 | 1.42569 | 1.42326
303.15 K, x1 = 0.697 | 1.4344 | 1.42918 | 1.42331 | 1.41861 | 1.41625 | 1.41415 | 1.41365 | 1.41136
303.15 K, x1 = 0.782 | 1.42104 | 1.41634 | 1.41106 | 1.40674 | 1.4046 | 1.40267 | 1.40221 | 1.4001
303.15 K, x1 = 0.859 | 1.40698 | 1.40281 | 1.39813 | 1.3943 | 1.39235 | 1.39059 | 1.39018 | 1.38824
303.15 K, x1 = 0.897 | 1.39635 | 1.3926 | 1.38838 | 1.3849 | 1.38309 | 1.38146 | 1.38109 | 1.37929
303.15 K, x1 = 0.932 | 1.3908 | 1.38725 | 1.38329 | 1.37997 | 1.37826 | 1.37671 | 1.37634 | 1.37461
303.15 K, x1 = 0.967 | 1.38499 | 1.38168 | 1.37795 | 1.37485 | 1.37321 | 1.37172 | 1.37138 | 1.36976
303.15 K, x1 = 1 | 1.37917 | 1.37611 | 1.37261 | 1.36968 | 1.36815 | 1.36675 | 1.36643 | 1.36485
